Values quoted from earlier work as cited in patent publication US20240207217A1, “IMPROVED TREATMENT METHODS FOR CABAZITAXEL” (ORBICULAR PHARMACEUTICAL TECHNOLOGIES PRIVATE LIMITED, priority 2020, published 2024).
Entries after “also recorded” stand apart in the source; their conditions may differ.

What was measured:
complement = settings: enzyme-linked immunosorbent assays
[1] = clinical trials in patients with cancer
[2] = IV administration; high clearance and small Vd

Row | Molecule | Complement activation in vitro (in words) (complement) | Solubility in water | Incidence of infusion-site adverse events (ISAEs) [1] | Half-life (t ½) [2]
1 | Poly-oxyethylene-sorbitan monooleate [polysorbate 80] | cause complement activation; also recorded: could activate the complement system | – | – | –
2 | CC(=O)O[C@@]12CO[C@@H]1C[C@H](O)[C@@]1(C)C(=O)[C@H](O)C3=C(C)[C@@H](OC(=O)[C@H](O)[C@@H](NC(=O)OC(C)(C)C)c4ccccc4)C[C@@](O)([C@@H](OC(=O)c4ccccc4)[C@H]21)C3(C)C [docetaxel] | cause complement activation | poorly soluble | 3-4% | –
3 | CC(=O)O[C@H]1C(=O)[C@@]2(C)[C@H]([C@H](OC(=O)c3ccccc3)[C@]3(O)C[C@H](OC(=O)[C@H](O)[C@@H](NC(=O)c4ccccc4)c4ccccc4)C(C)=C1C3(C)C)[C@]1(OC(C)=O)CO[C@@H]1C[C@@H]2O [paclitaxel] | – | poorly soluble | – | –
4 | sulfobutyl-ether-beta-cyclodextrin [SBCD] | – | – | – | quite short
5 | CO[C@H]1C(=O)[C@]2(C)[C@@H](OC)C[C@H]3OC[C@@]3(OC(C)=O)[C@H]2[C@H](OC(=O)c2ccccc2)[C@]2(O)C[C@H](OC(=O)[C@H](O)[C@@H](NC(=O)OC(C)(C)C)c3ccccc3)C(C)=C1C2(C)C [cabazitaxel] | – | poorly soluble | – | –
